Where “and” joins values, the source holds several entries; their conditions need not be identical. Equal values may be shown once.
How the values were obtained:
[1] = tolerance in different animal species and administration ways; format: in vivo
[2] = acute toxicity, LD50, rat; conditions: in vivo
[3] = acute toxicity, LD50, mouse; conditions: in vivo

CC(C)(C)NCC(O)c1cc(Br)no1 (stereo not drawn) [Z 1170, 1-(3-bromo-isoxazol-5-yl)-2-ter.butylaminoethanol]
tolerance [1]: particularly favorable tolerance
LD50 ([2]; iv, i.v. (1 ml/100 g/60")): 196 mg/kg and 650 µmol/kg
LD50 ([2]; po, os): > 2000 mg/kg
LD50 ([3]; ip): 230 mg/kg
LD50 ([3]; iv, i.v. (1 ml/100 g/60")): 126 mg/kg and 420 µmol/kg
LD50 ([3]; po, os): 770 mg/kg
